Assay results published in US8871801B2, “Method of treating acquired perforating dermatosis with cantharidin” (priority 2011, dated 2014).

Experiments:
[1] = system: acquired perforating dermatosis lesions; test: Topical cantharidin treatment of a patient with acquired perforating dermatosis (case example); format: in vivo, human
From the text: A person presented a six-month history of pruritic, hyperpigmented papules with central, hyperkeratotic plugs of bilateral lower extremities (FIG. 1). The trunk, head, upper extremities, volar surfaces and mucous membranes were spared. Their past medical history was significant for chronic renal failure treated for the past four years with peritoneal dialysis, a 30-year history of insulin-dependent diabetes mellitus, hypercholesterolemia, hypertension, coronary artery bypass, hypothyroidism, and hyperparathyroidism. There was no family history of similar skin lesions. […] The clinical and histopathologic features supported the diagnosis of an acquired perforating disorder associated with renal disease.
Over the next six months, the patient was treated with intralesional triamcinolone at 10 mg/cc, topical clobetasol, diflorasone, tacrolimus, tazarotene and ammonium lactate. They declined narrowband UVB phototherapy. They were also given oral hydroxine and fexofenadine for their pruritus.
While a therapy of fexofenadine […] bid, ammonium lactate 12% cream bid, and tazarotene 0.1% cream qd were continued, cantharidin at 0.7 wt % (Canthacur® Pharmascience Inc., Montreal, Canada) was applied to lesions on the right medial calf. Cantharidin was applied for eight hours under occlusion. The vehicle was a solution containing cantharidin 0.7 wt % in acetone, castor oil, collodion, ethoxyethanol, ethyl cellulose, and polyoxyethylene octyl phenol. “bid” means twice per day. “qd” means once per day.
The film was then occluded using Blenderm® tape, which was kept on for 8 hours before it was washed off. Within 2 days, multiple bullae formed at the sites of cantharidin application (FIG. 2). There was vesicle formation at site of cantharidin application. The patient reported mild pain at these sites for the first 2 days. A week after application, a biopsy of the blistered lesion was taken. […] The blister roofs were then removed by paring them with a 15-blade at the edge of the lesion to find the blister plane and then lifting upwards. […] The lichenified papules and hyperkeratotic cores were no longer present and the leg was smooth.
Pruritus was resolved in the treated lesions. Cantharidin was subsequently applied under Tegaderm® dressing (3M Corp.) occlusion to multiple lesions of both legs. […] In a five-month follow up, the patient reported no pruritus on the treated lesions. Treated lesions were smooth. […] Cantharidin provides symptomatic relief but may not prevent the formation of new lesions.

skin = conditions: general statement in the description; cited from earlier work

## C[C@@]12C(=O)OC(=O)[C@]1(C)[C@H]1CC[C@@H]2O1 [cantharidin, Cantharidin]
[1]; a week after application of cantharidin 0.7 wt %
  biopsy of the blistered lesion (histology): focal acantholysis and scattered necrotic keratinocytes
[1]; after cantharidin 0.7 wt % treatment and debridement
  pruritus in the treated lesions: resolved
[1]; cantharidin 0.7 wt % solution, lesions on right medial calf, 8 hours under occlusion (Blenderm tape)
  time to formation of multiple bullae at the sites of cantharidin application: ≤ 2 days
[1]; cantharidin 0.7 wt %, 8 hours under occlusion, first 2 days
  pain reported by the patient at application sites: mild pain
[1]; cantharidin applied under Tegaderm dressing occlusion
  effectiveness of treatment on multiple lesions of both legs: effective in most lesions
[1]; five-month follow up
  appearance of treated lesions at follow up: smooth
  formation of new lesions at follow up: A few new lesions formed
  pruritus on the treated lesions at follow up: no pruritus
skin
  time to blister formation after topical treatment: 24 to 48 h
